This experiment relates to graft infiltration by activated leukocytes. As to the kind of experiment: Immunostaining and cell population analysis of the adventitia of aortic grafts. The settings on record: 56 days after transplantation. In kind it is in vivo, rat. An excerpt: Animals. Male (250-350 g) Brown Norway rats (RT1^n) were used as aortic graft donors and male (250-350 g) Lewis rats (RT11) as recipients. Dawley (400-450 g) rats were used in the balloon injury model. Adult male C57BL/6, C57/S129, p21^−/− and p53^−/− null mice were purchased from Jackson Laboratory (Bar Harbor, Me.). mkk3^(−/−) null mice were generated as described Lu et al. (EMBO. 18:1845-1857 (1999)). The inos^−/− and enos^−/− mice were bred at the University of Pittsburgh. Aortic transplant model. Aortic transplantation was performed as described in Shimizu et al. (Nat. Med. 7:738-741 (2001)). Briefly, 3 to 4 cm of descending aorta was harvested from the donor and implanted between the renal arteries and the aortic bifurcation of the recipient. Both edges of the native abdominal aorta were ligated. Balloon injury model. Balloon angioplasty was carried out as described in Murakami et al. (Atherosclerosis 157:361-368 (2001)). Briefly, a 2 Fr. arterial embolectomy catheter (Baxter, Chicago, Ill.) was inserted into the common carotid artery, and injury was created by inflating the balloon to 5 atmospheres of pressure for 5 minutes. The arteries were flushed and the external carotid artery was ligated, ensuring return of blood flow through the common and internal carotid arteries. Injury of the vessel wall and subsequent pathological analysis was made in a manner that was blinded to the treatment group. CO exposure. CO was delivered to animals as described in Otterbein et al. (Nat. Med. 6:422-428 (2000)). […] In the balloon injury model, rats received either no pretreatment or were exposed to CO (250 ppm) for one hour prior to injury. Following surgery rats were housed in room air for two weeks. Cells. Primary mouse and rat smooth muscle cells (SMC) were isolated and cultured as described in Laubach et al. (Proc Natl Acad Sci USA 92:10688-9 (1995)). Mouse SMC isolated from HO-1^−/− mice were obtained as described in Duckers et al. (Nat. Med. 7:693-698 (2001)). Cell treatment and reagents. Guanylate cyclase inhibitor 1H(1,2,4) oxadiazolo(4,3-a)quinoxalin-1 (ODQ; Calbiochem-Novabiochem, San Diego, Calif.; 10-100 μM) and p38 MAPK inhibitor pyridinyl imidazol SB203580 (Calbiochem; 5-20 μM) were dissolved in DMSO. The cGMP analogue 8-bromo-cGMP sodium salt (8-Br-cGMP; Sigma-Aldrich, St. Louis, Mo.; 10-100 μM) and the PKG inhibitor (10-100 μM; Alexis Biochemicals) were dissolved in water. […] [^3H]thymidine incorporation was measured by scintillation spectroscopy and presented as mean counts/min/well. […] Areas from eight to ten captured images were calculated using digital imaging software as number of pixels corresponding to those areas. Twenty-four to forty-eight sections from each group were statistically analyzed with SPSS software version 10. […]

[1] abbreviates: adventitia of allogeneic aortic grafts.

Consider `[C-]#[O+]` [CO, carbon monoxide], for which, under setting [1], the “Accumulation of CD45+/CD3+ T cells, inhibition versus air treated controls” value was found to be 57±22%; the “Accumulation of CD45+/CD68+ monocyte/macrophages, inhibition versus air treated controls” value amounted to 65±24%; the “Expression of MHC II antigens and CD54/ICAM-1 (Mø activation)” value was “inhibited”. The “Graft infiltration by activated leukocytes (CD45+), inhibition versus air treated controls” value (maximal effect, 700 to 1000 ppm of CO) was 52±20%.
